The record followed here is a melting point compilation (Tetko et al.; mined from patent text by program, amines drawn as free bases though some values may be those of a salt).

Usually melting point stands for the temperature of the solid-liquid transition.

Consider `C=C1CCN(S(=O)(=O)c2ccc(Cl)c(C(=O)O)c2)CC1`, for which the melting point is 157 to 160 °C.
The same measure for `COc1ccc(Sc2nc(C)c(CC(=O)O)s2)nn1`: 143 to 144 °C; for `N#Cc1ccc(OCCCCCCOc2cccc(-c3cc4ccc(C#N)cc4o3)c2)cc1`: 125 to 127 °C.
The same measure for `Nc1cccc(C(=O)c2ccc(Cl)cc2)c1`: 114 to 115 °C.
In turn, `C=CCC(C(N)=O)C(N)=O` showed a melting point of 168 to 169 °C.
The same measure for `CN(C)C(=O)NNC(=O)c1ccccc1`: 199 to 201 °C; for `CC(=O)OC1CSC(Oc2ccc(-c3cncc(C)c3)nc2)C(OC(C)=O)C1OC(C)=O` (centres undefined): 189 to 190 °C; for `O=Cc1ccc(C(=O)Nc2ccc(Cl)cc2)cc1`: 158 °C.
The value for `Cc1ccc(S(=O)(=O)NCCNC2(c3ccc(Cl)cc3)OC(=O)c3ccccc32)cc1` (centres undefined) was 177 to 179 °C; that for `C=C(C)COc1ccc(C(=O)C=Cc2ccc(Br)cc2)c(O)c1` was 121 to 122 °C; that for `CCn1nnnc1CCC1(C)Cn2cc([N+](=O)[O-])nc2O1` (centres undefined) was 135 to 137 °C.
For `Fc1ccc(Cn2c(NCCN3CCC(Nc4nc5ccccc5n4Cc4ccc(F)cc4)CC3)nc3ccccc32)cc1`, the melting point turned out to be 197 °C.
The value for `CC(=O)NC[C@H]1CN(c2ccc(N3C[C@H]4CN(C(=O)OCc5ccccc5)C[C@H]4C3)cc2)C(=O)O1` was 135 to 140 °C.
As to `CCCCCCCCCCCCCCCCCCOc1cn(CCC)c(CO)cc1=O`, the melting point was in the range of 120 to 121 °C.
The value for `COC(=O)CCCCc1cc2cc(Cl)ccc2n1S(=O)(=O)c1ccccc1` was 95 to 98 °C.
The value for `Cc1c(NC(=O)c2ccc(OC[C@@H]3CCCO3)cc2)ccc2cc(CN3CCC(C)(O)CC3)cnc12` was 169 to 174 °C.
For `FC(F)(F)C(F)(F)C(F)(F)c1nc(-c2ccc(OCCCn3ccnc3)cc2)no1`, the melting point is 60 to 60.5 °C.
The value for `CONC(=N)c1nn(-c2c(Cl)cc(C(F)(F)F)cc2Cl)c(N)c1S(C)=O` (centres undefined) was 169 to 170 °C.
Take `COc1c(Cc2c[nH]cn2)cccc1C(N)=O`: the melting point was found to be 160 °C.
For the molecule `NCC(O)C1=CC2(CCCCC2)c2ccccc21` (centres undefined), the melting point turned out to be 117 °C.
The value for `CNC(=O)c1cc(N[C@@H]2c3ccccc3C[C@H]2O)c2nc(C)c(C)n2c1` (relative stereo) was 143 to 144 °C; that for `O=S(=O)(CC=C(c1ccccc1)c1ccccc1)c1ccccc1` was 106 °C; that for `CCOCc1nc2c(N)nc3cc(N4CCCCC4)ccc3c2n1CCCOC(C)C` was 182 to 184 °C.
In the case of `O=C(COc1ncccn1)NC1CCN(Cc2ccc(Cl)c(Cl)c2)CC1`, the melting point is 120 to 122 °C.
As to `CC1Sc2c(C(=O)O)c(=O)c3cc(F)c(N4CCNC(=O)C4)cc3n21` (centres undefined), the melting point lay in the range of 198 to 200 °C.
For `CCN(CC(C)Nc1c(C)cccc1C)C(C)=O` (centres undefined), the melting point is 58 to 60 °C.
As to `CCOC(=O)Cc1ccc(NC(=O)/C=C/c2c(C)noc2-c2ccccc2)cc1`, the melting point was 164 to 165 °C.
The molecule `CC(C)(C)c1cc(-c2nnc(SCC(=O)O)s2)cc(C(C)(C)C)c1O` gave a melting point of 188 °C.
On to `CN(C)C=C1CCc2cnccc2C1=O`, for which the melting point lay in the range of 76 to 79 °C.
Turning to `O=C(O)CN1C(=O)C=CC1=O`, the melting point was 110 °C.
The molecule `COc1ccc(CNc2ncnc3c2ncn3C2OC(Cn3cc(C)nn3)C(O)C2O)cc1` (centres undefined) displayed a melting point of 183 °C.
The same measure for `CC(C)(C(=O)Nc1cccc(Cl)c1)N1OCC(CI)=C(c2ccccc2)C1=O`: 135 to 137 °C; for `O=C(CF)c1ccc(F)cc1F`: 57 to 58 °C; for `CCOC(=O)c1nnc2c(sc3nc(C)ccc32)c1OCC`: 158 to 160 °C.
For `OCC1OC(n2cnc3c(NC4CCN(Cc5ccccc5)CC4)ncnc32)C(O)C1O` (centres undefined), the melting point lay within 176 to 182 °C.
The same measure for `CCCN(C(=O)CC)c1c(C#N)cnn1-c1ccc(OC(F)(F)F)cc1Cl`: 83 °C; for `CN(C)C(=O)c1nc2ccccc2n(Cc2ccccc2)c1=O`: 154 to 155 °C.
`O=c1[nH]c(=O)n(C2CC(F)C(CO)O2)cc1C#CI` (centres undefined) yielded a melting point of 140 °C.
The same measure for `CC(C)Nc1cc2c(cc1C(=O)c1ccccc1)OCO2`: 77 to 78 °C; for `CC(=O)NC[C@H]1CN(c2ccc(N3CCC(n4cc(C(C)=O)nn4)CC3)c(F)c2)C(=O)O1`: 220 to 222 °C.
The same measure for `NC(=O)CC1CN=C(c2cc3cc(OC(F)(F)F)cc(NS(=O)(=O)c4cccs4)c3[nH]2)S1` (centres undefined): 239 to 240 °C.
The same measure for `Cc1nc2cccc(OCC(C)(C)NC(=O)CC3CCOCC3)c2c(N)c1C(=O)O`: 175 to 178 °C.
For `COC(=O)C1(C)CCc2cc(C(=O)c3ccccc3)c(OC)cc21` (centres undefined), the melting point fell in the range of 135 to 137 °C.
The value for `COC(=O)c1ccccc1Cn1ccc(OCc2ccc(F)cc2)c(Br)c1=O` was 161 to 165 °C; that for `O=C(OCc1ccccc1)C(O)N1C(=O)C2CC=CCC21` (centres undefined) was 92 to 93 °C; that for `COc1cc(Br)c(CCC#N)cc1OC` was 78 to 80 °C.
The same measure for `CC(Cl)(Cl)c1nc2c(C(F)(F)F)cccc2c(=O)o1`: 120 °C; for `NCCCCc1ccccc1C1=NNC(=O)CC1`: 78 to 80 °C.
Molecule `COc1cc(Cl)ccc1-c1ccc(C(C)=O)cc1` yielded a melting point of 125 to 127 °C.
The value for `COc1cc(Nc2nccc(-c3ccc(N4CCNCC4)nc3)n2)cc(OC)c1` was 176 to 177 °C; that for `COc1nccnc1NS(=O)(=O)c1cccc(F)c1` was 142 to 143 °C; that for `CCc1noc(-c2cc3c4cc(N(C)C)ccc4n(CCCCl)c3cn2)n1` was 183 to 186 °C.
Molecule `Cc1cc(NNC(=O)OC(C)(C)C)nnc1-c1cccc([N+](=O)[O-])c1` returned a melting point of 160 to 162 °C.
The value for `COC(=O)C1=C(C)N(CCCc2ccccc2)C(C)=C(C(=O)OC)C1c1ccc(OC)c(OC)c1` was 97 to 98 °C; that for `COCc1nnc2n1-c1sc(Cl)cc1C(c1ccccc1[N+](=O)[O-])=NC2` was 204 to 205 °C; that for `CNC(=O)c1ccc(-n2nc(C(=O)NC3(C(=O)O)C4CC5CC(C4)CC3C5)cc2-c2c(OC)cccc2OC)c2ccccc12` (centres undefined) was 170 °C.
`CSCC[C@H](NC(=O)[C@@H]1CS[C@H](c2ccccc2O)N1C(=O)CCSC(C)=O)C(=O)O` registered a melting point of 59 to 64 °C.
The same measure for `O=c1cnc(-c2cc(Br)cc(-c3ccsc3)c2)nn1CC(F)(F)F`: 180 to 182 °C; for `O=[N+]([O-])c1ccc2c(c1)NP(=O)(N(CCCl)CCCl)OC2` (centres undefined): 138 to 142 °C; for `CCNc1nc(OC)c(C(=O)NCCN(CC)CC)nc1Cl`: 142 °C.
The same measure for `COC(=O)/C=C/n1cnc2ccc(C3CC3)cc2c1=O`: 178 °C; for `COC(=O)c1ccc2ncn(-c3ccc(OC)cc3)c2c1`: 112 to 113 °C; for `Cc1nnn(Cc2cc(-c3ncco3)ccc2-c2ccccc2S(=O)(=O)Nc2onc(C)c2C)n1`: 168 to 174 °C.
The same measure for `CN(C)c1ccc(C(=O)Nc2cn3cc(-n4ccnc4)ccc3n2)cc1`: 247 to 248 °C; for `CCN[C@H]1CCC[C@H](Oc2ccc3[nH]ncc3c2)C1` (relative stereo): 116 to 118 °C; for `CC(=O)c1c(O)cc(C)cc1O`: 146 to 148 °C.
`COc1ccncc1C#N` yielded a melting point of 124 to 126 °C.
`COc1ccc(C2CN(S(=O)(=O)c3ccc(C)cc3)Cc3ccccc32)c(CO)c1OC` (centres undefined) yielded a melting point of 162 to 164 °C.
The same measure for `CCC(C)c1nn(-c2ccc(C(F)(F)F)cn2)cc1C=O` (centres undefined): 82 to 83 °C; for `Cc1ccnc2c1C(=O)CC(c1ccsc1)C2` (centres undefined): 92 to 93 °C; for `N#Cc1ccc(-c2cc(-c3ccc(C#N)cc3[N+](=O)[O-])on2)cc1`: 280 to 281 °C.
The value for `N#CC1(Nc2ccccc2)CCN([C@H]2CCc3ccccc32)CC1` was 157 to 160 °C; that for `CC1CCN(C2(c3ccc(C#CC(=O)Nc4ccc(-c5ccc(Cl)cc5)cc4)cc3)CC2)CC1` was 128 to 129 °C.
The value for `CCC(C)(COc1nn2nc(C)nc2cc1C)CS(N)(=O)=O` (centres undefined) was 194 to 195 °C; that for `CN(C)C=C(C#N)C(=O)c1c[nH]c2ccccc12` was 187 to 188 °C.
For the molecule `CCCCCCC1(CCCCCC)c2ccccc2-c2ccccc21`, the melting point lay in the range of 31 to 33 °C.
For `O=C(c1ccc(Cl)cc1)c1cccc(O)c1`, the melting point stood at 154 °C.
Regarding `CC(=Cc1ccccc1)n1c(=O)[nH]c2ccc(F)cc21`, the melting point came out at 190 °C.
The value for `Cc1nc(N2CCc3ccccc3CC2)c(C#N)c(=O)n1C[C@H]1COC(C)(C)O1` was 166 to 168 °C; that for `CC(C)C[C@H](NC(=O)[C@H](Cc1ccccc1)NC(=O)OCc1ccccc1)C(=O)N[C@@H](C(C)C)[C@@H](O)c1c(-c2ccccc2)c1=O` was 128 to 130 °C; that for `CC(C)(C)OC(=O)N1CCN(c2ccc(O)c(C=O)c2)CC1` was 84 to 86 °C.
The same measure for `Cc1c(-c2ccccc2)c2cc(Cl)ccc2n1CC(N)=O`: 223 to 224 °C.
The same measure for `CCOC(=NC(=O)c1ccco1)N1Cc2ccccc2-c2ccccc2C1`: 87 to 92 °C; for `CCC(N)(P(=O)(O)O)P(=O)(O)O`: 282 °C.
With `Cc1ccc(N2N=CC(=NNc3cccc(-c4cccc(C(=O)O)c4)c3O)C2=O)cc1C`, the melting point lay in the range of 226 to 228 °C.
The same measure for `COc1ccc(Cc2nc3c(cnn3C(CCCc3ccccc3)C(C)O)c(=O)[nH]2)cc1` (centres undefined): 41 °C; for `Cc1cccc(C)c1NC(=O)CN1CCN(Cc2ccccc2)CC1C(C)O` (centres undefined): 149 °C.
The same measure for `O=C1NCCc2c(OCCc3ccccc3)cccc21`: 149 to 150 °C; for `C=CC1CN(c2ncc(C(=O)N(CCCCC)c3cccc(C(F)(F)F)c3)c(N)n2)C(=O)N1` (centres undefined): 135 to 137 °C.
